Entries after “also recorded” stand apart in the source; their conditions may differ.
Assays:
Deoxyhypusyl hydroxylase = target: T1, Deoxyhypusyl hydroxylase (Homo sapiens, UniProt Q9BU89); experiment: Cellular deoxyhypusyl hydroxylase (hypusine formation) inhibition, human B-cells and human smooth muscle cells; format: cell-based; details: for Deoxyhypusyl hydroxylase ID50 (cellular): concentration for half-maximal inhibition
T1 construct: endogenous in cells
T1 sequence (Q9BU89 1-302): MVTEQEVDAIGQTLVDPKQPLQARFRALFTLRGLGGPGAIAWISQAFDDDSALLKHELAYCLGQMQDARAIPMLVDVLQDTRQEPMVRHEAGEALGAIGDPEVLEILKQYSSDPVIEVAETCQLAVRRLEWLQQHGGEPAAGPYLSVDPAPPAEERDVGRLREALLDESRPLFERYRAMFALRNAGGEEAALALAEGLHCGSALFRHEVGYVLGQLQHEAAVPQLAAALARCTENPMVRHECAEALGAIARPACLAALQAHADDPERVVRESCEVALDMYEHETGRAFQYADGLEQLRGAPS
Protocol: The cell-free enzyme assay was performed to test a pilot peptidomimetic which can be equipped with hydroxypyridone warheads. The cell culture studies were performed to establish the inherent inhibitory potency of such hydroxypyridones.
DOHH Assay. The intracellular conversion of peptide-bound deoxyhypusine to peptidyl hypusine was determined after preincubation of human T lymphocyte-derived cells (i.e. ACH-2) [Clouse et al., J. Immunol. 142, 431-438 (1989), which is hereby incorporated by reference] with the hypusine inhibitors mimosine and HK-1 for 60 minutes, followed by labeling for 21 hours with ^3 H-spermidine (3.75 μCi/ml) in wells containing 3×10^6 cells suspended in 8 ml of serum-supplemented and antibiotic-containing RPMI 1640 medium. Cells were then split into two groups, one of them being harvested immediately to assess degree of DOHH inhibition, and the other harvested after transfer of the cells into inhibitor-free medium for 2 hours to measure resumption of DOHH activity. Harvesting consisted in precipitation of washed cells with 10% TCA containing 1 mM each of putrescine, spermidine, and spermine. Cellular proteins from each sample were then hydrolyzed in 6N HCl at 110° C. for 16 hours. The hydrolysate was analyzed for labeled amino acids on an amino acid analyzer by published methods [Park et al., J. Biol. Chem., 257, 7217-7222 (1982), which is hereby incorporated by reference]. The retention times of hypusine and deoxyhypusine were determined from standards. Similar studies were performed in human B-cells and human smooth muscle cells.
The concentration required for half-maximal inhibition (ID50) of the cellular enzyme activity is identified for each compound.

[1] = tested on: HIV-1 p24 antigen, H9 cells; experiment: p24 antigen levels (ELISA) in chronically HIV-1 infected H9 cells; format: cell-based; details: 48 hours, FIGS. 8 and 9
Protocol: (§1) 1. Dose-dependency of antiviral effect. Cells of the human T lymphocyte line H9, chronically and productively infected with the Lai (IIIb) strain of HIV-1, were harvested during logarithmic proliferation, extensively washed to remove viral antigens and infectious particles, and re-suspendedin serum-supplemented and antibiotic-containing RPMI 1640 medium at a density of 2×10^5 cells/ml. After incubation with increasing concentrations of mimosine or HK-1 for 48 hours, the cells were harvested, lysed, and used to determine the intracellular amount of the p24 antigen derived from the p55 Gag polyprotein, using a commercially available, p24-specific ELISA method (Coulter, Hialeah, Fla.); the same method was also used to quantify the extracellular level of p24 antigen that had accumulated in the supernatant during incubation with the hypusine inhibitors. In addition, titration assays were performed using CEM target cells to measure the infectivity of virus produced in the absence and presence of the hypusine inhibitors using the procedure of Prince et al., Proc. Natl. Acad. Sci. USA 85, 6944-6948 (1988), which is hereby incorporated by reference. The half-maximal tissue culture infectious doses (TCID50) of HIV-1 per ml of test sample were calculated by the Spearman-Karber method.

[2] = tested on: HIV-1 infected ACH-2 cells; experiment: Flow cytometry of genomic DNA 3'-ends (apoptosis), HIV-1 infected cells; format: cell-based, human; details: for fragmentation of genomic DNA / number of DNA 3'-ends, ACH-2: FIG. 13
Protocol: (§2) FIGS. 13A-F show the flowcytometrically determined distribution of the number of fluorescently labeled 3'-ends in the genomic DNA of HIV-1 producing ACH-2 cells ("ACH-2") and their uninfected parent cell line CEM ("CEM"), both receiving no treatment ("NT") or treatment for 18 hours with either 200 μM mimosine ("MIM") or 200 μM HK-1 ("HK1"). […] This is the hallmark of irreversible auto-destruction of a cell's genetic library.
(§3) FIGS. 14A-H show the flowcytometrically determined distribution of the number of fluorescently labeled 3'-ends in the genomic DNA of HIV-1 producing ACH-2 cells ("ACH-2") and of their uninfected parent cell line CEM ("CEM"), both receiving no treatment ("NT") or treatment for 18 hours with 200 μM mimosine ("MIM"), followed by inhibitor withdrawal and reincubation in fresh medium for 2 hours.
(§4) ACH-2 cells were incubated with hypusine inhibitors (mimosine, HK-1) and induced with PMA as outlined in Example II A, except that the duration of exposure to inhibitor was extended to 18-21 hours and that cells were labeled as detailed in Example I B. Half of the cells were then harvested and processed for detection of apoptosis, while the other half was washed free of inhibitors and re-incubated in fresh medium for 2-4 hours, followed by harvesting and processing for detection of […] apoptosis. Using the same protocol, cultures of the parent CEM cell line were incubated in parallel. For assessment of apoptosis, cell viability was measured by exclusion of the dye trypan blue, by retention of the ^3 H-spermidine-derived intracellular radioactivity incorporated into the obligatory intracellular protein eIF-5A, and by direct fluorescence detection of the intemucleosomal degradation of genomic DNA. Such irreversible genome degradation signals the activation of pre-programmed suicide mechanisms within any cell, which is the hallmark of apoptosis, and inescapably results in cell death [Compton, Cancer Metast. 11, 105-119 (1992), which is hereby incorporated by reference]. For the latter method, a commercially available kit was used (Oncor, Gaithersburg, Md.). Flow cytometric analysis of apoptotic cells was performed in accord with standard procedures.

HIV-1 = experiment: Titration assay of infectivity of virus (TCID50) produced by infected H9 cells, CEM target cells; format: cell-based; details: 48 hours, increasing concentrations
Protocol: as §1

[3] = tested on: uninfected parent cell line CEM; experiment: Cell membrane integrity / viability, uninfected parent cells; format: cell-based, human; details: incubation and withdrawal, FIG. 12B
Protocol: (§5) FIGS. 12A and B show the loss of cell membrane integrity suffered by HIV-1 producing ACH-2 cells and their uninfected parent cell line CEM during incubation with and after withdrawal of mimosine and HK-1. The black bar indicates the duration of inhibitor exposure, the open bar the duration of inhibitor withdrawal. Cell membrane integrity was determined by the ability of the cells to exclude the low-molecular weight dye trypan blue (FIGS. 12A and B) and to retain the spermidine-derived radioactive label of a single, obligatory intracellular protein species, eIF-5A and its deoxyhypusyl precursor (FIG. 12A).
(§6) ACH-2 cells were incubated with hypusine inhibitors (mimosine, HK-1) and induced with PMA as outlined in Example II A, except that the duration of exposure to inhibitor was extended to 18-21 hours and that cells were labeled as detailed in Example I B. Half of the cells were then harvested and processed for detection of apoptosis, while the other half was washed free of inhibitors and re-incubated in fresh medium for 2-4 hours, followed by harvesting and processing for detection of […] apoptosis. Using the same protocol, cultures of the parent CEM cell line were incubated in parallel. […]

[4] = tested on: HIV-1 infected ACH-2 cells; experiment: Cell membrane integrity (trypan blue exclusion, retention of labeled eIF-5A), HIV-1 infected cells; format: cell-based, human; details: during 18-21 h incubation and 2-4 hours after withdrawal, FIGS. 12A and B
Protocol: as §5, §6

[5] = tested on: uninfected parent cell line CEM; experiment: Flow cytometry of genomic DNA 3'-ends (apoptosis), uninfected parent cells; format: cell-based, human; details: for genomic DNA 3'-ends, CEM: 200 μM, 18 hours, FIG. 13
Protocol: as §2, §3
as §4, with “Flow cytometric analysis of apoptotic cells was performed in accord with standard procedures.” left out

Structure (SMILES)	Deoxyhypusyl hydroxylase ID50 (cellular) (Deoxyhypusyl hydroxylase)	intra- and extracellular p24 antigen levels [1]	fragmentation of genomic DNA / number of DNA 3'-ends, ACH-2 ([2]; 200 μM, 18 hours)	production of infectious HIV-1 particles / infectivity of virus (HIV-1)	cell membrane integrity / viability, uninfected CEM [3]	cell membrane integrity, HIV-1 producing ACH-2 [4]	genomic DNA 3'-ends, CEM [5]	inhibition of deoxyhypusyl hydroxylase activity, i.e. hypusine formation (Deoxyhypusyl hydroxylase)	DNA fragmentation after withdrawal, ACH-2 ([2]; 200 μM 18 hours, then 2 hours after withdrawal, FIG. 14)	second population (higher amount of 3'-ends) position, ACH-2 ([2]; 200 μM, 18 hours, FIG. 14) [channel]	average fluorescence peak position, ACH-2 ([2]; 200 μM, 18 hours, FIG. 14, control around channel 100) [channel]	average fluorescence peak after incubation and withdrawal, CEM ([5]; 200 μM 18 hours, then 2 hours withdrawal, FIG. 14)
Cc1c(O)c(=O)ccn1C [HK-1, 1,2-dimethyl-3-hydroxypyrid-4-one]	90	inhibitory effect on the extracellular (FIG. 9A) and intracellular (FIG. 9B) levels of the p24 antigen	triggered fragmentation of the genomic DNA; also recorded: increase of the number of 3'-ends in their DNA	dose-dependently suppressive effect	no such loss of membrane integrity was noted	the most marked, uniform and rapid decline of membrane integrity developed 2-4 hours after inhibitor withdrawal	did not affect the position of this peak in uninfected CEM cells; also recorded: Only the virally-infected ACH-2, but not the parent CEM cells reacted to the inhibitors					
N[C@@H](Cn1ccc(=O)c(O)c1)C(=O)O [L-Mimosine]	65	inhibitory effect on the intracellular (FIG. 8A) and extracellular (FIG. 8B) levels of the p24 antigen	triggered fragmentation of the genomic DNA; also recorded: increase of the number of 3'-ends in their DNA	dose-dependently suppressive effect	no such loss of membrane integrity was noted	the most marked, uniform and rapid decline of membrane integrity developed 2-4 hours after inhibitor withdrawal	did not affect the position of this peak in uninfected CEM cells; also recorded: Only the virally-infected ACH-2, but not the parent CEM cells reacted to the inhibitors	efficiently inhibit deoxyhypusyl hydroxylase activity	this population did not decrease, but rather became the predominant one; also recorded: Within the 2 hours of release, this shift increased markedly	~210	140	the position and shape of the average fluorescence peak in CEM cells did not change; also recorded: Only the virally infected ACH-2, but not the parent CEM cells reacted to the inhibitor

Source: patent US5849587A, “Method of inhibiting viral replication in eukaryotic cells and of inducing apoptosis of virally-infected cells” (Cornell Research Foundation, Inc., priority 1995, dated 1998)
